Laboratory results as given in ChEMBL document CHEMBL1208773, “Improving the permeability of the hydroxyethylamine BACE-1 inhibitors: structure-activity relationship of P2' substituents” (Bioorg Med Chem Lett, 2010).

Experiments:
[1] = Lipophilicity, log P of the compound; type: physicochemical; details: octanol/water
[2] = Dissociation constant, pKa of the compound; type: physicochemical

SMILES | logP [1] | pKa [2]
CC(=O)N[C@@H](Cc1cc(F)cc(F)c1)[C@H](O)CNC1(c2cccc(C3CCCO3)c2)CCCCC1 (some centres undefined) | 4 | –
CC(=O)N[C@@H](Cc1cc(F)cc(F)c1)[C@H](O)CNC1(c2cccc(C3CCOC3)c2)CCCCC1 (some centres undefined) | 4 | –
CC(=O)N[C@@H](Cc1cc(F)cc(F)c1)[C@H](O)CNC1(c2cccc(C(C)(C)C)c2)CCCCC1 | 4.8 | 8.1
